In patent US20130035232A1, “INDUCTION AND STABILIZATION OF ENZYMATIC ACTIVITY IN MICROORGANISMS” (GEORGIA STATE UNIVERSITY RESEARCH FOUNDATION, INC., priority 2010, published 2013):

Tests used:
nitrile hydratase [1] = assay: Nitrile hydratase induction by inducers (Example 1); assay type: cell-based, Rhodococcus sp., strain DAP 96253; settings: inducer 1000 ppm
Experimental: The induction of nitrile hydratase activity and amidase activity in Rhodococcus sp., strain DAP 96253, was evaluated using multiple types of inducers (1000 ppm). Three different samples were cultured in YEMEA medium containing 10 ppm cobalt and 7.5 g/L urea and supplemented with acrylonitrile, asparagine, or glutamine. The specific nitrile hydratase activity and the specific amidase activity in each sample was evaluated, and the results are provided below in Table 3, with activities provided in units/mg cdw (cell dry weight). One unit of nitrile hydratase activity relates to the ability to convert 1 μmol of acrylonitrile to its corresponding amide per minute, per milligram of cells (dry weight) at a pH of 7.0 and a temperature of 30° C. One unit of amidase activity relates to the ability to convert 1 μmol of acrylamide to its corresponding acid per minute, per milligram of cells (dry weight) pH of 7.0 and a temperature of 30° C.

asparaginase I [2] = assay: 20 liter fermentation with asparagine feed: asparaginase I; assay type: cell-based, Rhodococcus sp. DAP 96253; settings: end of 20 liter fermentation; asparagine 0.15M at 1000 μl/min from t=10 hour; FIG. 5
Experimental: (§1) Rhodococcus sp. DAP 96253 were grown using biphasic medium as the source of inoculum for a 20 liter fermentation. The supplemental addition of medium/carbohydrate (either YEMEA, dextrose or maltose) was made to the modified R2A medium, containing cottonseed hydrolysate substituted for the Proteos Peptone 3 (PP3). Asparagine (0.15M solution) was added at a continuous rate of 1000 μl/min beginning at t=10 hour. At the end of the fermentation run, 159 units per milligram cell dry weight of acrylonitrile specific nitrile hydratase, 22 units of amidase per milligram cell dry weight, and 16 g/l cell packed wet weight were produced.

asparaginase I [3] = assay: Asparaginase I production on supplemented medium; assay type: cell-based; settings: YEMEA, 7.5 g/L urea, 10 ppm cobalt
Experimental: The induction of asparaginase I production in various nitrile hydratase producing microorganisms was evaluated. All strains were grown on YEMEA medium containing 7.5 g/L of urea and 10 ppm cobalt (provided as cobalt chloride) supplemented with asparagine (ASN), glutamine (GLN), or both asparagine and glutamine. The asparagine and glutamine were added at a concentration of 3.8 mM. As a comparative, enzyme production was also evaluated with supplementation with acrylonitrile (AN), acrylamide (AMD) or acrylonitrile and acrylamide. Growth temperature was in the range of 26° C. to 30° C.

[4] = tested on: Pseudomonas chloroaphis ATCC 43051; assay: Growth on supplemented YEMEA (visual grade); assay type: cell-based; parameters: key: (−) meaning no detectable growth; (+/−) meaning scant growth; (+) meaning little growth; (++) meaning good growth; (+++) meaning very good growth; (++++) meaning excellent growth; settings: 30 °C, 7.5 g/L urea, 10 ppm cobalt, supplement 3.8 mM
Experimental: (§2) The relative growth of various nitrile hydratase producing microorganisms was evaluated. All strains were grown on YEMEA medium containing 7.5 g/L of urea and 10 ppm cobalt (provided as cobalt chloride) supplemented with asparagine (ASN), glutamine (GLN), or both asparagine and glutamine. The asparagine and glutamine were added at a concentration of 3.8 mM. Growth temperature was in the range of 26° C. to 30° C. Growth was evaluated by visual inspection and graded on the following scale: (−) meaning no detectable growth; (+/−) meaning scant growth; (+) meaning little growth; (++) meaning good growth; (+++) meaning very good growth; and (++++) meaning excellent growth.

[5] = tested on: Rhodococcus sp. DAP 96253 ATCC 55899; assay: Growth on supplemented YEMEA (visual grade); assay type: cell-based; parameters: key: (−) meaning no detectable growth; (+/−) meaning scant growth; (+) meaning little growth; (++) meaning good growth; (+++) meaning very good growth; (++++) meaning excellent growth; settings: 30 °C, 7.5 g/L urea, 10 ppm cobalt, supplement 3.8 mM
Experimental: as §2

[6] = tested on: Rhodococcus rhodochrous DAP 96622 ATCC 55898; assay: Growth on supplemented YEMEA (visual grade); assay type: cell-based; parameters: key: (−) meaning no detectable growth; (+/−) meaning scant growth; (+) meaning little growth; (++) meaning good growth; (+++) meaning very good growth; (++++) meaning excellent growth; settings: 26 °C, 7.5 g/L urea, 10 ppm cobalt, supplement 3.8 mM
Experimental: as §2

[7] = tested on: Rhodococcus erythropolis ATCC 47072; assay: Growth on supplemented YEMEA (visual grade); assay type: cell-based; parameters: key: (−) meaning no detectable growth; (+/−) meaning scant growth; (+) meaning little growth; (++) meaning good growth; (+++) meaning very good growth; (++++) meaning excellent growth; settings: 26 °C, 7.5 g/L urea, 10 ppm cobalt, supplement 3.8 mM
Experimental: as §2

[8] = tested on: Pseudomonas chloroaphis ATCC 13985; assay: Growth on supplemented YEMEA (visual grade); assay type: cell-based; parameters: key: (−) meaning no detectable growth; (+/−) meaning scant growth; (+) meaning little growth; (++) meaning good growth; (+++) meaning very good growth; (++++) meaning excellent growth; settings: 26 °C, 7.5 g/L urea, 10 ppm cobalt, supplement 3.8 mM
Experimental: as §2

[9] = tested on: Brevibacterium ketoglutaricum ATCC 21533; assay: Growth on supplemented YEMEA (visual grade); assay type: cell-based; parameters: key: (−) meaning no detectable growth; (+/−) meaning scant growth; (+) meaning little growth; (++) meaning good growth; (+++) meaning very good growth; (++++) meaning excellent growth; settings: 30 °C, 7.5 g/L urea, 10 ppm cobalt, supplement 3.8 mM
Experimental: as §2

amidase [10] = assay: 20 liter fermentation with asparagine feed: amidase; assay type: cell-based, Rhodococcus sp. DAP 96253; settings: end of 20 liter fermentation; asparagine 0.15M at 1000 μl/min from t=10 hour
Experimental: as §1

amidase [11] = assay: Amidase production on supplemented medium; assay type: cell-based; settings: YEMEA, urea, cobalt, supplement 3.8 mM
Experimental: (§3) The induction of nitrile hydratase production and amidase production in various nitrile hydratase producing microorganisms was evaluated. All strains were grown on YEMEA medium containing 7.5 g/L of urea and 10 ppm cobalt (provided as cobalt chloride) supplemented with asparagine (ASN), glutamine (GLN), or both asparagine and glutamine. The asparagine and glutamine were added at a concentration of 3.8 mM. As a comparative, enzyme production with no supplementation was also tested. Growth temperature was in the range of 26° C. to 30° C.

nitrile hydratase [12] = assay: Nitrile hydratase production on supplemented medium; assay type: cell-based; settings: YEMEA, urea, cobalt, supplement 3.8 mM
Experimental: as §3

[13] = Brevibacterium ketoglutaricum ATCC 21533, 30 °C
[14] = Pseudomonas chloroaphis ATCC 13985, 26 °C
[15] = Pseudomonas chloroaphis ATCC 43051, 30 °C
[16] = Rhodococcus erythropolis ATCC 47072, 26 °C
[17] = Rhodococcus rhodochrous DAP 96622 ATCC 55898, 26 °C
[18] = Rhodococcus sp. DAP 96253 ATCC 55899, 30 °C

Compound: NC(=O)C[C@H](N)C(=O)O [Asparagine, asparagine]
- Nitrile Hydratase Activity (nitrile hydratase [1]; Rhodococcus sp. DAP 96253, YEMEA, 10 ppm cobalt, 7.5 g/L urea): 170.50 Units/mg cdw
- nitrile hydratase induction compared with acrylonitrile (nitrile hydratase [1]): exceeds the ability of acrylonitrile to induce such activity
- asparaginase I produced (asparaginase I [2]): 16 units per milligram cell dry weight
- Asparaginase I Level Based on Growth Medium Supplementation (asparaginase I [3]; [13]): 19.1 Units/mg cdw
- Asparaginase I Level Based on Growth Medium Supplementation (asparaginase I [3]; [14]): 0 Units/mg cdw
- Asparaginase I Level Based on Growth Medium Supplementation (asparaginase I [3]; [15]): 18.4 Units/mg cdw
- Asparaginase I Level Based on Growth Medium Supplementation (asparaginase I [3]; [16]): 1 Units/mg cdw
- Asparaginase I Level Based on Growth Medium Supplementation (asparaginase I [3]; [17]): 12.3 Units/mg cdw
- Asparaginase I Level Based on Growth Medium Supplementation (asparaginase I [3]; [18]): 12.5 Units/mg cdw
- Growth [4]: +
- Growth [5]: ++++
- Growth [6]: ++++
- Growth [7]: ++
- Growth [8]: +
- Growth [9]: +
- amidase produced (amidase [10]): 22 units per milligram cell dry weight
- Amidase Level Based on Growth Medium Supplementation (amidase [11]; [13]): 0 Units/mg cdw
- Amidase Level Based on Growth Medium Supplementation (amidase [11]; [14]): 14 Units/mg cdw
- Amidase Level Based on Growth Medium Supplementation (amidase [11]; [15]): 0 Units/mg cdw
- Amidase Level Based on Growth Medium Supplementation (amidase [11]; [16]): 9 Units/mg cdw
- Amidase Level Based on Growth Medium Supplementation (amidase [11]; [17]): 10 Units/mg cdw
- Amidase Level Based on Growth Medium Supplementation (amidase [11]; [18]): 13 Units/mg cdw
- Nitrile Hydratase Level Based on Growth Medium Supplementation (nitrile hydratase [12]; [13]): 30 Units/mg cdw
- Nitrile Hydratase Level Based on Growth Medium Supplementation (nitrile hydratase [12]; [14]): 14 Units/mg cdw
- Nitrile Hydratase Level Based on Growth Medium Supplementation (nitrile hydratase [12]; [15]): 28 Units/mg cdw
- Nitrile Hydratase Level Based on Growth Medium Supplementation (nitrile hydratase [12]; [16]): 48 Units/mg cdw
- Nitrile Hydratase Level Based on Growth Medium Supplementation (nitrile hydratase [12]; [17]): 158 Units/mg cdw
- Nitrile Hydratase Level Based on Growth Medium Supplementation (nitrile hydratase [12]; [18]): 155 Units/mg cdw
